Experimental data taken from patent publication US20230414626A1, “INDUCTION OF FERROPTOSIS FOR CANCER THERAPY” (Memorial Sloan Kettering Cancer Center, priority 2020, published 2023).

Columns and labels:
[1] = test system: mTORC1 activity; assay: Western blot of S6K phosphorylation (pT389 S6K); format: cell-based, human; conditions: RSL3 0.25 μM
Protocol: FIG. 7 A-J. PI3K-AKT-mTOR signaling regulates ferroptosis sensitivity. (A) Cells were treated as indicated. GDC-0941, 2 μM; MK-2206, 2 μM; RSL3, 1 μM; Fer-1, 1 μM. Lipid peroxidation was measured. (B) Cells were treated with indicated conditions. Torin, 1 μM; RSL3, 1 μM for MDA-MB-453 cells and 0.5 μM for BT474 cells; Fer-1, 1 μM. Cell death was measured. (C) Cells were treated with indicated conditions. RSL3, 10 μM for MCF cells and PC-3 cells, 5 μM for T47D cells, 1 μM for HepG2 cells; Torin, 1 μM; CCI-779, 0.5 μM. (D) Cells were treated as indicated. CCI-779, 0.5 μM; Torin, 1 μM; Fer-1, 1 μM. Cell death was staining by propidium iodide (PI) (red) or Sytox Green (green) (scale bar, 100 μm). (E-F) 3D spheroids for MDA-MB-453 cells and MCF7 cells were treated as indicated. CCI-779, 0.5 μM; RSL3, 1 μM for MDA-MB-453 cells and 5 μM for MCF7 cells; Fer-1, 1 μM. Top panels, cell death staining (scale bar, 100 m). Bottom panels, cell viability. (G) MDA-MB-453 cells were treated as indicated for 24 h. RSL3, 1 μM; CCI-779, 0.5 μM; GDC-0941, 2 μM; MK-2206, 2 μM; Dabrafenib, 2 μM; SCH772984, 2 μM; Fer-1, 1 μM. (H) Western blot was performed to detect RPTOR and RICTOR knockdown efficiency. (I) HT1080 cells and MDA-MB-231 cells (both with wild-type PI3K-AKT-mTOR pathway) were treated as indicated. RSL3, 0.1 μM for HT1080 and 0.25 μM for MDA-MB-231; Torin, 1 μM; CCI-779, 0.5 μM; Fer-1, 1 μM. Cell death was measured. (J) Two lines of PI3K-AKT-mTOR pathway wild-type cells (HT1080 and MDA-MB-231) and two lines of cells harboring activating mutation of the pathway (BT474 and MDA-MB-453) were treated as indicated. RSL3, 0.25 μM; Fer-1, 1 μM. Western blot was performed to detect the level of pT389 S6K.
Cell lysates were resolved on SDS-PAGE gels and transferred to a nitrocellulose membranes. The membranes were incubated in 5% skim milk for 1 hour at room temperature and then incubated with primary antibodies diluted in blocking buffer at 4° C. overnight. […]

[2] = test system: panel of human cancer cell lines with defined genetic mutations; assay: Sensitivity of cancer cell line panel to RSL3 (cell death, Sytox Green); format: cell-based; conditions: cancer cells carrying PIK3CA activating mutation or PTEN deletion; 24-h treatment
Protocol: FIG. 1 A-D. Oncogenic activation of the PI3K-AKT-mTOR signaling pathway confers resistance to ferroptosis. (A) Genetic background of the analyzed cancer cell lines and their sensitivity to RSL3. (B) Cells were seeded in 96-well plate, 2×10^4 cells per well and incubated overnight. Cell death was induced by 24-h treatment of RSL3 with indicated concentrations. Cell death were measured by Sytox Green staining, as detailed in Methods. (C) Indicated protein components in the PI3K-AKT pathway were detected by western blot in indicated cell types. […] Cell death was measured. […]
To investigate the functional interplay between ferroptosis and signaling pathways frequently mutated in cancer, we analyzed a panel of human cancer cell lines with defined genetic mutations. […]
Cells were seeded in plates at appropriate cell density and incubated overnight at 37° C. containing 5% C02, and then subjected to treatments as described in individual experiments. […] Culture plates were read by Cytation 5 at indicated time points. Percentage of cell death was calculated as Sytox Green-positive cell number over total cell number. For 3D spheroids, cell viability was determined a commercially available cell viability assay (Promega, Madison, WI, USA) following the manufacturer's instructions. […]

[3] = test system: HT1080 cells; assay: Cell death quantification, PI3K-AKT-mTOR wild-type cells; format: cell-based, human; conditions: HT1080, wild-type PI3K-AKT-mTOR pathway; RSL3 0.1 μM; Torin 1 μM; CCI-779 0.5 μM
Protocol: (§1) FIG. 7 A-J. PI3K-AKT-mTOR signaling regulates ferroptosis sensitivity. (A) Cells were treated as indicated. GDC-0941, 2 μM; MK-2206, 2 μM; RSL3, 1 μM; Fer-1, 1 μM. Lipid peroxidation was measured. (B) Cells were treated with indicated conditions. Torin, 1 μM; RSL3, 1 μM for MDA-MB-453 cells and 0.5 μM for BT474 cells; Fer-1, 1 μM. Cell death was measured. (C) Cells were treated with indicated conditions. RSL3, 10 μM for MCF cells and PC-3 cells, 5 μM for T47D cells, 1 μM for HepG2 cells; Torin, 1 μM; CCI-779, 0.5 μM. (D) Cells were treated as indicated. CCI-779, 0.5 μM; Torin, 1 μM; Fer-1, 1 μM. Cell death was staining by propidium iodide (PI) (red) or Sytox Green (green) (scale bar, 100 μm). […] Cell death was measured. […]
(§2) Cells were seeded in plates at appropriate cell density and incubated overnight at 37° C. containing 5% C02, and then subjected to treatments as described in individual experiments. […] Culture plates were read by Cytation 5 at indicated time points. Percentage of cell death was calculated as Sytox Green-positive cell number over total cell number. For 3D spheroids, cell viability was determined a commercially available cell viability assay (Promega, Madison, WI, USA) following the manufacturer's instructions. Viability was calculated by normalizing ATP levels of samples to that of negative controls (spheroids in normal full media without treatment).

[4] = test system: MDA-MB-231 cells; assay: as above; format: cell-based, human; conditions: MDA-MB-231, wild-type PI3K-AKT-mTOR pathway; RSL3 0.25 μM; Torin 1 μM; CCI-779 0.5 μM
Protocol: as §1, §2

[5] = test system: MDA-MB-453 cells; assay: Cell death quantification (Sytox Green), RSL3-induced ferroptosis; format: cell-based, human; conditions: fatty acid 0.5 mM, RSL3 1 μM, CCI-779 0.5 μM
Protocol: (§3) FIG. 1 A-D. Oncogenic activation of the PI3K-AKT-mTOR signaling pathway confers resistance to ferroptosis. (A) Genetic background of the analyzed cancer cell lines and their sensitivity to RSL3. (B) Cells were seeded in 96-well plate, 2×10^4 cells per well and incubated overnight. Cell death was induced by 24-h treatment of RSL3 with indicated concentrations. Cell death were measured by Sytox Green staining, as detailed in Methods. (C) Indicated protein components in the PI3K-AKT pathway were detected by western blot in indicated cell types. (D) Cells were treated with or without PI3K inhibitor GDC-0941 (2 μM), AKT inhibitor MK-2206 (2 μM), RSL3 (1 μM), or ferroptosis inhibitor Ferrostatin-1 (Fer-1, 1 μM) as indicated for 12 h (BT474) or 24 h (MDA-MB-453). Cell death was measured. Indicators for P values (same in all other figures): ****, P≤0.0001; *** P≤0.001; **, P≤0.01; *, P≤0.05; ns, P>0.05
(§4) FIG. 2 A-E. mTORC1, instead of mTORC2, suppresses ferroptosis. (A) MDA-MB-453 and BT474 were treated with CCI-779 (0.5 μM), RSL3 (1 μM for MDA-MB-453 cells and 0.5 μM for BT474 cells), and Fer-1 (1 μM) as indicated. (B) Cells were seeded in 6-well plate, 4×10^5 cells per well and incubated overnight. MDA-MB-453 and BT474 cells were treated as indicated. CCI-779, 0.5 μM; RSL3, 1 μM for MDA-MB-453 cells and 0.5 μM for BT474 cells; Fer-1, 1 μM. Cells were stained with 5 μM C1I-BODIPY followed by flow cytometry after 8 h-treatment. (C) 3D spheroids were treated as indicated. CCI-779, 0.5 μM; RSL3, 0.5 μM; Fer-1, 1 μM. Top panel, dead cells were stained by SYTOX Green (scale bar, 100 μm). Bottom panel, cell viability was assayed by measuring cellular ATP levels. (D) Cells expressing shRNAs targeting RPTOR or RICTOR were treated as indicated. CCI-779, 0.5 μM; RSL3, 0.5 μM; Fer-1, 1 μM. (E) Lipid peroxidation of samples as in panel D were measured.
(§5) FIG. 5 A-H. SREBP1 protects cells from ferroptosis through SCD1 activity. (A) The expression of SREBP1, and its targets SCD1, FASN, and ACACA, in control and SREBF1-sgRNA cells were detected by western blot. (B) The mRNA level of SREPF1 and its targets gene SCD were measured by RT-PCR. (C) Cells were pretreated with or without 5 μM CAY10566 overnight, and then subjected to the indicated treatments. RSL3, 0.5 μM for BT474 cells and 1 μM for MDA-MB-453 cells; CAY10566, 5 μM; Fer-1, 1 μM. (D) Cells expressing control or SCD-sgRNA were treated as indicated. RSL3, 1 μM for MDA-MB-453 cells and 0.5 μM for BT474 cells; Fer-1, 1 μM. (E) 3D spheroids derived from BT474 cells harboring control or SCD-sgRNA were treated as indicated. RSL3, 0.5 μM; CCI-779, 0.5 μM; Fer-1, 1 μM. Left, cell death staining (scale bar, 100 m). Right, cell viability. (F) SCD1 was overexpressed in BT474 cells and determined by western blot. Cells were treated as indicated. RSL3, 0.5 μM; CCI-779, 0.5 μM. (G) 3D spheroids derived from BT474 cells with control or SCD1 overexpression were treated as indicated. RSL3, 0.5 μM; CCI-779, 0.5 μM; Fer-1, 1 μM. Left, cell death staining (scale bar, 100 m). Right, cell viability. (H) Cells were treated as indicated. RSL3, 0.5 μM for BT474 and 1 μM for MDA-MB-453; CCI-779, 0.5 μM; Oleic acid (OA), 0.5 mM; stearic acid (SA), 0.5 mM.
(§6) FIG. 7 A-J. PI3K-AKT-mTOR signaling regulates ferroptosis sensitivity. (A) Cells were treated as indicated. GDC-0941, 2 μM; MK-2206, 2 μM; RSL3, 1 μM; Fer-1, 1 μM. Lipid peroxidation was measured. (B) Cells were treated with indicated conditions. Torin, 1 μM; RSL3, 1 μM for MDA-MB-453 cells and 0.5 μM for BT474 cells; Fer-1, 1 μM. Cell death was measured. (C) Cells were treated with indicated conditions. RSL3, 10 μM for MCF cells and PC-3 cells, 5 μM for T47D cells, 1 μM for HepG2 cells; Torin, 1 μM; CCI-779, 0.5 μM. (D) Cells were treated as indicated. CCI-779, 0.5 μM; Torin, 1 μM; Fer-1, 1 μM. Cell death was staining by propidium iodide (PI) (red) or Sytox Green (green) (scale bar, 100 μm). (E-F) 3D spheroids for MDA-MB-453 cells and MCF7 cells were treated as indicated. […]

[6] = test system: BT474 cells; assay: as above; format: cell-based, human; conditions: fatty acid 0.5 mM, RSL3 0.5 μM, CCI-779 0.5 μM
Protocol: as §3, §4, §5, §6

[7] = wild-type cells (HT1080 and MDA-MB-231), Fer-1 1 μM

SMILES | mTORC1 activity as measured by S6K phosphorylation ([1]; cells harboring pathway mutation (BT474 and MDA-MB-453)) | mTORC1 activity as measured by S6K phosphorylation [1, 7] | sensitivity to ferroptosis induction by RSL3 [2] | ferroptosis induction (cell death) [3] | ferroptosis induction (cell death) [4] | ferroptosis resistance upon treatment of CCI-779 plus RSL3 (fatty acid supplementation) [5] | ferroptosis resistance upon treatment of CCI-779 plus RSL3 (fatty acid supplementation) [6]
COC(=O)c1ccc([C@@H]2c3[nH]c4ccccc4c3C[C@@H](C(=O)OC)N2C(=O)CCl)cc1 [RSL3] | retained active mTORC1 | inhibited | more resistant | sufficient to induce ferroptosis | sufficient to induce ferroptosis | – | –
CCOC(=O)c1ccc(NC2CCCCC2)c(N)c1 [ferrostatin-1] | – | prevented RSL3-triggered inactivation of mTORC1 activity | – | – | – | – | –
CCCCCCCC/C=C\CCCCCCCC(=O)O [oleate acid] | – | – | – | – | – | resulted in ferroptosis resistance | resulted in ferroptosis resistance
CCCCCC/C=C\CCCCCCCC(=O)O [palmitoleic acid] | – | – | – | – | – | resulted in ferroptosis resistance | resulted in ferroptosis resistance
